One assay has as its target PB2long N510T mutant. The class given is binding, influenza A/Udorn/307/1972(H3N2).
The test system of assay [1] is FluA Udorn replicon with PB2 N510T. It counts as cell-based, influenza A/H3N2/Udorn/72 in 293 T cells.

With `O=C(O)[C@H]1C2CCC(CC2)[C@@H]1Nc1nc(-c2c[nH]c3ncc(F)cc23)ncc1F` [VX-787], the “KD fold change, PB2long N510T” value on PB2long N510T mutant was determined as 90 fold. In addition, the “fold loss of cellular EC50, N510T vs WT replicon” value in assay [1] is given as 90 fold.
